By half-life is commonly meant how long it takes for the measured level to halve. A low value points to fast loss.

Here are results for one substance from US9402875B2, “Amidated dopamine neuron stimulating peptide restoration of mitochondrial activity” (University of Kentucky Research Foundation, priority 2006, dated 2016).

Ends that are not written are not given here. Bounds are passed on as bounds.

Data set [1] has as its system E14 SD rat embryo primary dopaminergic neurons from the ventral mesencephalon. The format is cell-based. On the procedure: DNSP-11 treatment of Mesencephalic Cells: Timed pregnant SD rats (Harlan) were used to obtain the ventral mesencephalon from E14 fetuses. The dissected tissue was collected in cold Neurobasal™ medium and rinsed twice with cold Dulbecco's PBS. The cells were chemically (TrypLE®) and mechanically dissociated to yield a single cell suspension. The solution was centrifuged at 169 g for 6 minutes and the pellet was resuspended in Dulbecco's Modified Eagle Medium (DMEM). Cells were plated in a 25 μL micro-island at a density of 4000 cells/μL on poly-D-lysine coated 24-well plates (Sigma). Following adherence, cells were supplemented with warm NEUROBASAL™ media containing 2 mM glutamine, 1×N2, and 100 units of penicillin/streptomycin. Neurotrophic compounds were added at each media addition, including initial plating and DIV 2. A dose response of the peptides (0.03 ng to 10 ng/mL) was added to a 24-well plate following media supplementation.
The neurotrophic effects of DNSP-11 were studied by comparing its effects to the well-known effects of GDNF on the maintenance of primary mesencephalic cell cultures from E14 SD rat embryos. E14 SD rat embryo primary dopaminergic neurons from the ventral mesencephalon were grown for 5 days in vitro and neurotrophic molecules were added at each media change, including initial plating and day 2. […] These effects were similar to those observed for GDNF in these cells, including an increase in the size of TH+ neurons, which was not observed for DNSP-11 (Table 4).
In Table 1, cell survival and morphological parameters were quantified for control (citrate buffer) and experimental (0.1 ng/ml GDNF or 0.1 ng/ml DNSP-11) conditions. For morphology, five fields per well (minimum of 15 cells/field; 3-4 independent experiments) were photographed at 20× magnification and quantified using a Bioquant Image Analysis System. […] Soma size was not increased by the addition of DNSP-11. A one-way ANOVA was used to test for significance among groups, followed by a Newman-Keuls post hoc analysis. Significance between control and experimental conditions was determined at *p<0.05 and **p<0.01.

Data set [2] in a line: Distribution, uptake and half-life of DNSP-11 in the brain (immunostaining). The format is in vivo, rat. To be noted: male, F344, rat, brain, 30 ug; 30 μg intracerebral injection. As for the experimental part: (§1) Additional studies were carried out to determine if DNSP-11 is actively taken up into dopamine-containing neurons in vivo. A single administration of 30 μg of DNSP-11 was delivered into the rat substantia nigra. Animals were euthanized at 0.5, 1.5, 4, 24 and 48 hrs after injection to visualize distribution of DNSP-11 using antibodies raised against DNSP-11 and the ubiquitinated form of DNSP-11. DNSP-11 antibodies labelled the cytosol and neurites of neurons in the area of the substantia nigra within 30 minutes after injection. DNSP-11 was taken up by neurons in both the substantia nigra, pars reticulata (SNr) and substantia nigra, pars compacta (SNc). […] Higher power micrographs from the SNc.
(§2) To assess the distribution, uptake and degradation of DNSP-11 in the brain, young adult male F344 rats, as a test organism, received injections of 30 μg DNSP-11 in the substantia nigra, hippocampus or cortex. They were euthanized by anesthesia overdose at various time points from 30 minutes to 48 hrs later and perfused through the heart with saline followed by paraformaldehyde.
(§3) Our standard published procedures for immuncytochemical staining were used (e.g. Gash D M et al., J Comp Neurol. 1995 December 18;363(3):345-58., Grondin et al., 2002; Ai et al., 2003). A polyclonal antibody was generated against DNSP-11 in rabbits (Alpha Diagnostic International, San Antonio, Tex.). Endogenous peroxidases were inactivated by incubation with 0.2% hydrogen peroxide (H2O2) for 10 minutes and background blocked with 4% normal serum, 1% bovine serum albumin (BSA) for 1 hour. Free floating sections were incubated in primary antisera. Sections were then exposed to the appropriate biotinylated IgG (Vecto Labs, Burlingame, Calif.) for 1 hour and then incubated in avidin-biotin-peroxidase complex using Elite ABC Vectastain Kits (Vector Labs) for 1 hour. Some sections were double-labeled using procedures following our published procedures for immunocytochemical staining to identify cells with two markers (e.g. Ai et al., 2003).
(§4) Controls for immunostaining included the omission of primary antibodies and replacement of primary antibodies with normal serum of the same species.

Another data set has as its system rat brain neurons. The data set is described as above. In kind it is in vivo. On the procedure: as §1, §2, §3, §4
The mark [3] stands for this setting: 30 μg bolus into mid-substantia nigra.

Take “PPEAPAEDRSL-NH2 [DNSP-11, PPEAPAEDRSL-amide]”: in data set [1] (0.1 ng/ml, 5 days in vitro, control 100), the Cell survival entry is on record as “*161 ± 17”. Besides, in data set [1] (0.1 ng/ml, controls 3.8 ± 0.2 (GDNF), 3.1 ± 0.2 (DNSP-11)), the “Average branches per neuron” value is on record as “**4.4 ± 0.3”. Moreover, in data set [1] (0.1 ng/ml, controls 171 ± 4 (GDNF), 168 ± 3 (DNSP-11)), the “Soma size (um^2)” value is 165 ± 5 um^2. Further, in data set [1] (0.1 ng/ml, controls 242 ± 12 (GDNF), 222 ± 11 (DNSP-11)), the “Combined neurite length (um)” value is listed as “**306 ± 23 um”. Besides, the “TH+ neuron counts” value in data set [1] (0.03, 0.1, 1.0 and 10 ng/ml) was “significantly increase”. For the same substance, in data set [2], the half-life was < 1440 min. Also, in the data set on rat brain neurons (setting [3]), the “spread in the anterior-posterior plane” value is on record as ~3 mm and the “spread in the medial-lateral plane” value is recorded as ≤ 2 mm. Further, in the data set with rat brain neurons (30 μg injected into rat substantia nigra (all brain areas evaluated)), the “time to uptake by neurons after injection” value was ≤ 30 min. Besides, the “immunohistochemical staining for DNSP-11” value in the data set on rat brain neurons (3 hrs after injection into substantia nigra) is “diminished”. For the same substance, in the data set on rat brain neurons (48 hours post peptide administration), the “immunohistochemical staining for DNSP-11” value is “no evidence of DNSP-11”. Further, the “uptake into neurons of striatum, hippocampus and cortex” value in the data set on rat brain neurons (stereotaxic injections of 30 μg) was “Uptake was observed into neurons”.
